Test results from patent publication EP0745595A1, “3-(3-Aryloxyphenyl)-1-(substituted methyl)-s-triazine-2,4,6-oxo or thiotrione herbicidal agents” (American Cyanamid Company, priority 1995, dated 1996).

Tests used:
Format in all cases: in vivo
[1] = tested on: ORYZA SATIVA, L. TEBONNET; experiment: Rice tolerance to post-transplant applications under flooded paddy conditions, ORYSAT (Rice, Tebonnet); settings: 0.500 kg/ha, post-transplant rice, 3-4 weeks after treatment
In short: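 Two ten-day-old Tebonnet rice seedlings were transplanted into silt loam and kept flooded 1.5 to 3 cm deep. Three days after transplanting, the flood surface received the compound in aqueous/acetone 50/50 v/v at about 0.5, 0.25, 0.125 or 0.063 kg/ha. Injury was rated visually on a 0-9 scale versus control after 3-4 weeks.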

[2] = tested on: GLYCINE MAX(L) MERR. CV. WILLIAMS; experiment: Preemergence herbicidal evaluation, GLXMAW (Soybean, Williams); settings: rated four to five weeks after treatment
Description: (§1) Results of herbicide evaluation are expressed on a rating scale (0-9). The scale is based upon a visual observation of plant stand, vigor, malformation, size, chlorosis and overall plant appearance as compared with a control.
(§2) The preemergence herbicidal activity of the test compounds of the present invention is exemplified by the following tests in which the seeds of a variety of monocotyledonous and dicotyledonous plants are separately mixed with potting soil and planted on top of approximately one inch of soil in separate pint cups. […] The treated cups are then placed on greenhouse benches, watered and cared for in accordance with conventional greenhouse procedures. From four to five weeks after treatment, the tests are terminated and each cup is examined and rated according to the rating system provided in Example 40.
(§3) The compounds evaluated are reported by compound number given in Example 40.

SAGITTARIA PYGMAEA, L. = experiment: Preemergence weed control under flooded paddy conditions, SAGPY (Arrowhead (Pygmaea)); settings: 0.500 kg/ha, preemergence, 3-4 weeks after treatment
Protocol: as §1
(§4) Preemergence herbicidal activity under flooded paddy conditions is determined as follows: plant seeds or propagating organs are planted in the top 0.5 cm of silt loam soil in 32 oz. plastic containers with a diameter of 10.5 cm and no drainage holes. Water is added to these containers and maintained at 1.5 to 3 cm above the soil surface for the duration of the experiment. […] The treated containers are placed on greenhouse benches and cared for according to normal greenhouse procedures.- Three to four weeks after treatment the test is terminated and each container is examined and herbicidal effect rated according to the rating system provided in Example 40. The compounds evaluated are reported by compound number given in Example 40.
(§5) Plant species employed in this example are reported by header abbreviation, common name and scientific name.

CYPERUS IRIA = experiment: Preemergence weed control under flooded paddy conditions, CYPIR (Rice Flatsedge); settings: 0.500 kg/ha, preemergence, 3-4 weeks after treatment
Protocol: as §1, §4, §5

[3] = tested on: ECHINOCHLOA ORYZOIDES (ARD.)FRITSCH; experiment: Preemergence weed control under flooded paddy conditions, ECHORC (Watergrass (Calif.)); settings: 0.500 kg/ha, preemergence, 3-4 weeks after treatment
Protocol: as §1, §4, §5

[4] = tested on: CYPERUS SEROTINUS, ROTTB.; experiment: Preemergence weed control under flooded paddy conditions, CYPSE (Flatsedge); settings: 0.500 kg/ha, preemergence, 3-4 weeks after treatment
Protocol: as §1, §4, §5

[…], PRESL. = Preemergence weed control under flooded paddy conditions, MOOVA (Monochoria); settings: 0.500 kg/ha, preemergence, 3-4 weeks after treatment
Protocol: as §1
Preemergence herbicidal activity under flooded paddy conditions is determined as follows: plant seeds or propagating organs are planted in the top 0.5 cm of silt loam soil in 32 oz. plastic containers with a diameter of 10.5 cm and no drainage holes. Water is added to these containers and maintained at 1.5 to 3 cm above the soil surface for the duration of the experiment. The test compounds are applied as aqueous/acetone mixtures 50/50 v/v pipetted directly into the flood water to give the equivalent of about 0.5, 0.25, 0.125 and 0.063 kg/ha of active ingredient. The treated containers are placed on greenhouse benches and cared for according to normal greenhouse procedures.- Three to four weeks after treatment the test is terminated and each container is examined and herbicidal effect rated according to the rating system provided in Example 40. The compounds evaluated are reported by compound number given in Example 40.
as §5

[5] = tested on: ECHINOCHLOA CRUS-GALLI, (L) BEAU; experiment: Preemergence herbicidal evaluation, ECHCG (Barnyardgrass); settings: rated four to five weeks after treatment
Description: as §1, §2, §3

[6] = tested on: ORYZA SATIVA, L. TEBONNET; experiment: Postemergence herbicidal evaluation, ORYSAT (Rice, Tebonnet); parameters: key: 0-9 visual rating scale vs untreated control
Protocol: (§6) In the tests, seedling plants are grown in jiffy flats for about two weeks. The test compounds are dispersed in 50/50 acetone/water mixtures containing 0.5% TWEEN®20, a polyoxyethylene sorbitan monolaurate surfactant of Atlas Chemical Industries, in sufficient quantities to provide the equivalent of about 0.125 kg to 0.500 kg per hectare of active compound when applied to the plants through a spray nozzle operating at 40 psi for a predetermined time. After spraying, the plants are placed on greenhouse benches and are cared for in the usual manner, commensurate with conventional greenhouse practices. From four to five weeks after treatment, the seedling plants are examined and rated according to the rating system set forth below. Where more than one test is involved for a given compound, the data are averaged.
(§7) Plant species employed in these evaluations are reported by header abbreviation, common name and scientific name.
as §1

CHENOPODIUM ALBUM, L. = experiment: Postemergence herbicidal evaluation, CHEAL (Lambsquarters, Common)
In short: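 Seedlings of common lambsquarters (Chenopodium album) were raised in jiffy flats for roughly two weeks, then sprayed postemergence through a nozzle at 40 psi with test compound dispersed in 50/50 acetone/water containing 0.5% TWEEN®20 surfactant. Plants were kept on greenhouse benches under standard care and rated visually on a 0-9 scale versus controls.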

[7] = tested on: SETARIA VIRIDIS, (L) BEAU; experiment: Postemergence herbicidal evaluation, SETVI (Foxtail, Green); parameters: key to SETVI rating / Herbicidal effect rating, SETVI / SETVI: 0-9 visual rating scale vs untreated control
Protocol: as §6, §7, §1

CASSIA OBTUSIFOLIA, L. = experiment: Postemergence herbicidal evaluation, CASOB (Sicklepod); parameters: key to CASOB rating / Herbicidal effect rating, CASOB / CASOB: 0-9 visual rating scale vs untreated control
In short: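 Two-week-old seedlings sprayed with compound in 50/50 acetone/water plus 0.5% TWEEN 20 at about 0.125–0.500 kg/ha via nozzle at 40 psi. Kept in greenhouse; rated visually 4–5 weeks after treatment on a 0–9 scale versus untreated control, averaging repeat tests.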

GALIUM APARINE = experiment: Postemergence herbicidal evaluation, GALAP (Galium); parameters: key to GALAP rating / Herbicidal effect rating, GALAP / GALAP: 0-9 visual rating scale vs untreated control
Protocol: as §6, §7, §1

[8] = tested on: ABUTILON THEOPHRASTI, MEDIC.; experiment: Postemergence herbicidal evaluation, ABUTH (Velvetleaf)
In short: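 Velvetleaf (Abutilon theophrasti) seedlings were raised in jiffy flats for about two weeks and then sprayed postemergence. The test compound was dispersed in a 50/50 acetone/water mixture containing 0.5% TWEEN®20 and applied through a nozzle operating at 40 psi. Plants were kept on greenhouse benches and rated 0-9 four to five weeks after treatment.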

[9] = tested on: GLYCINE MAX(L) MERR. CV. WILLIAMS; experiment: Postemergence herbicidal evaluation, GLXMAW (Soybean, Williams); parameters: key to GLXMAW rating / Herbicidal effect rating, GLXMAW / GLXMAW: 0-9 visual rating scale vs untreated control
Protocol: as §6, §7, §1

[10] = tested on: ECHINOCHLOA CRUS-GALLI, (L) BEAU; experiment: Postemergence herbicidal evaluation, ECHCG (Barnyardgrass); parameters: key to ECHCG rating / Herbicidal effect rating, ECHCG / ECHCG: 0-9 visual rating scale vs untreated control
Protocol: as §6, §7, §1

IPOMOEA SPP. = experiment: Postemergence herbicidal evaluation, IPOSS (Morningglory spp.)
In short: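 Seedlings of morningglory (Ipomoea spp.) were raised in jiffy flats for roughly two weeks. They were then sprayed postemergence through a nozzle at 40 psi with test compound dispersed in 50/50 acetone/water containing 0.5% TWEEN®20 surfactant. Plants were kept on greenhouse benches under standard care and visually rated 0-9 against controls four to five weeks after treatment.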

[11] = tested on: AMBROSIA ARTEMISIIFOLIA, L.; experiment: Postemergence herbicidal evaluation, AMBEL (Ragweed, Common)
In short: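 Common ragweed (Ambrosia artemisiifolia) seedlings were raised in jiffy flats for roughly two weeks, then sprayed postemergence through a nozzle at 40 psi with the test compound dispersed in 50/50 acetone/water carrying 0.5% TWEEN®20. The plants were kept on greenhouse benches under conventional care. Four to five weeks later, injury was rated visually on a 0-9 scale, and repeat tests were averaged.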

## COC(=O)Cn1c(=O)n(C)c(=O)n(-c2cc(Oc3cc(OC)c(Cl)cc3Cl)ccc2[N+](=O)[O-])c1=O [Compound 29, Methyl 3-[5-(2,4-dichloro-5-methoxyphenoxy)-2-nitrophenyl]tetrahydro-5-methyl-2,4,6-trioxo-s-triazine-1(2H)-acetate]
[1]
  Herbicidal effect rating, ORYSAT: 0.0
[2]; Rate 0.125 kg/ha
  GLXMAW herbicidal rating: 0.0
[2]; Rate 0.250 kg/ha
  GLXMAW herbicidal rating: 0.0
[2]; Rate 0.500 kg/ha
  GLXMAW herbicidal rating: 0.0
SAGITTARIA PYGMAEA, L.
  Herbicidal effect rating, SAGPY: 0.0
CYPERUS IRIA
  Herbicidal effect rating, CYPIR: 0.0
[3]
  Herbicidal effect rating, ECHORC: 0.0
[4]
  Herbicidal effect rating, CYPSE: 0.0
[…], PRESL.
  Herbicidal effect rating, MOOVA: 0.0
[5]; Rate 0.125 kg/ha
  ECHCG herbicidal rating: 0.0
[5]; Rate 0.250 kg/ha
  ECHCG herbicidal rating: 0.0
[5]; Rate 0.500 kg/ha
  ECHCG herbicidal rating: 0.0

## COC(=O)Cn1c(=O)n(C)c(=O)n(-c2cc(Oc3cc(F)c(F)cc3F)ccc2[N+](=O)[O-])c1=O [Compound 30]
[1]
  Herbicidal effect rating, ORYSAT: 1.0
[6]; Rate 0.125 kg/ha
  ORYSAT rating: 3.0
[6]; Rate 0.250 kg/ha
  ORYSAT rating: 3.0
[6]; Rate 0.500 kg/ha
  ORYSAT rating: 3.0
SAGITTARIA PYGMAEA, L.
  Herbicidal effect rating, SAGPY: 0.0
CYPERUS IRIA
  Herbicidal effect rating, CYPIR: 0.0
[3]
  Herbicidal effect rating, ECHORC: 0.0
[4]
  Herbicidal effect rating, CYPSE: 0.0
[…], PRESL.
  Herbicidal effect rating, MOOVA: 0.0

## COC(=O)Cn1c(=O)n(C)c(=O)n(-c2cc(Oc3cc(Cl)cc(Cl)c3Cl)ccc2[N+](=O)[O-])c1=O [Compound 25, Methyl 3-[2-nitro-5-(2,3,5-trichloro-phenoxy)phenyl]tetrahydro-5-methyl-2,4,6-trioxo-s-triazine-1(2H)-acetate]
CHENOPODIUM ALBUM, L.; Rate 0.125 kg/ha
  CHEAL rating: 0.0
CHENOPODIUM ALBUM, L.; Rate 0.250 kg/ha
  CHEAL rating: 0.0
CHENOPODIUM ALBUM, L.; Rate 0.500 kg/ha
  CHEAL rating: 0.0
[1]
  Herbicidal effect rating, ORYSAT: 0.0
[7]; Rate 0.125 kg/ha
  SETVI rating: 0.0
[7]; Rate 0.250 kg/ha
  SETVI rating: 0.0
[7]; Rate 0.500 kg/ha
  SETVI rating: 0.0
CASSIA OBTUSIFOLIA, L.; Rate 0.125 kg/ha
  CASOB rating: 0.0
CASSIA OBTUSIFOLIA, L.; Rate 0.250 kg/ha
  CASOB rating: 0.0
CASSIA OBTUSIFOLIA, L.; Rate 0.500 kg/ha
  CASOB rating: 0.0
SAGITTARIA PYGMAEA, L.
  Herbicidal effect rating, SAGPY: 0.0
CYPERUS IRIA
  Herbicidal effect rating, CYPIR: 0.0
[3]
  Herbicidal effect rating, ECHORC: 0.0
GALIUM APARINE; Rate 0.125 kg/ha
  GALAP rating: 0.0
GALIUM APARINE; Rate 0.250 kg/ha
  GALAP rating: 0.0
GALIUM APARINE; Rate 0.500 kg/ha
  GALAP rating: 0.0
[8]; Rate 0.125 kg/ha
  ABUTH rating: 0.0
[8]; Rate 0.250 kg/ha
  ABUTH rating: 0.0
[8]; Rate 0.500 kg/ha
  ABUTH rating: 0.0
[9]; Rate 0.125 kg/ha
  GLXMAW rating: 0.0
[9]; Rate 0.250 kg/ha
  GLXMAW rating: 0.0
[9]; Rate 0.500 kg/ha
  GLXMAW rating: 0.0
[10]; Rate 0.125 kg/ha
  ECHCG rating: 0.0
[10]; Rate 0.250 kg/ha
  ECHCG rating: 0.0
[10]; Rate 0.500 kg/ha
  ECHCG rating: 0.0
[4]
  Herbicidal effect rating, CYPSE: 0.0
[…], PRESL.
  Herbicidal effect rating, MOOVA: 0.0
IPOMOEA SPP.; Rate 0.125 kg/ha
  IPOSS rating: 0.0
IPOMOEA SPP.; Rate 0.250 kg/ha
  IPOSS rating: 0.0
IPOMOEA SPP.; Rate 0.500 kg/ha
  IPOSS rating: 0.0
[11]; Rate 0.125 kg/ha
  AMBEL rating: 0.0
[11]; Rate 0.250 kg/ha
  AMBEL rating: 0.0
[11]; Rate 0.500 kg/ha
  AMBEL rating: 0.0
